Results: ChEMBL document CHEMBL1201862, “PubChem BioAssay data set” (2004)
Calls of active or inactive are those of the source.

Key:
[1] = tested on: HEK293; test: inhibition of NOD1-driven NF-kB reporter – cell-based, luminescence, uHTS, primary screen (AID 1578); format: functional; conditions: Homo sapiens
[2] = tested on: HEK293; test: cells; format: functional, cell-based; conditions: Homo sapiens
[3] = tested on: HEK293; test: cells; format: functional, cell-based; conditions: Homo sapiens; remark: listed apart in the source
[4] = target: Nucleotide-binding oligomerization domain-containing protein 2 (Homo sapiens, UniProt Q9HC29); test: inhibition of NOD2-driven NF-kB reporter – cell-based, luminescence, uHTS, HEK293 (AID 1566); format: functional
[5] = tested on: HEK293; test: NOD2 signaling inhibitors in MDP-stimulated cells, cell-based, uHTS, luminescence (AID 2001); format: functional; conditions: Homo sapiens
[6] = tested on: HEK293; test: cells; format: functional, cell-based; conditions: Homo sapiens; remark: listed apart in the source
[7] = Luminescence Cell-Based Dose Confirmation HTS to Identify Activators of 5'UTR Stem-Loop Driven Alpha-Synuclein mRNA Translation in H4 Neuroglioblastoma Cells. [Related pubchem assays: 1829 (Project Summary), 1814 (Primary HTS)]; format: functional
[8] = Luminescence Cell-Based Dose Response HTS to Identify Activators of Luciferase Translation or Activity in H4 […] Cells. [Related pubchem assays: 1829 (Project Summary), 1814 (Primary HTS)]; format: functional
[9] = tested on: H4; test: Luminescence Cell-Based Dose Response HTS to Identify Activators of 5'UTR Stem-Loop Driven Prion Protein mRNA Translation in H4 Neuroglioblastoma Cells. [Related pubchem assays: 1829 (Project Summary), 1814 (Primary HTS)]; format: functional; conditions: Homo sapiens
[10] = Trypanosoma cruzi growth suppression in host cells – NIH3T3 host cells, beta-gal luminescence, confirmation (AID 2044); format: functional, cell-based;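 note: intracellular parasites grown in NIH/3T3 mouse fibroblasts as host cells; luminescent beta-galactosidase reporter signal from transgenic T. cruzi replicating inside host cells; inhibitors lower the luminescence signal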
[11] = NIH3T3 cell viability loss – ATP luminescence, mouse fibroblasts, counter-screen, dose response (AID 2010); format: functional, cell-based;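 note: cells exposed to compound for about 90 hours before reading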
[12] = tested on: Vero; test: cells; format: functional; conditions: Chlorocebus sabaeus
[13] = cells
[14] = A Cell Based Secondary Assay To Explore Cytotoxicity of Compounds that Sensitize Mycobacterium Tuberculosis to Beta-Lactam Antibiotics.; format: functional
[15] = target: T1, Replicative DNA helicase DnaB (Mycobacterium tuberculosis, UniProt P9WMR3); test: DnaB intein splicing inhibitors, dose response, biochemical, cell-free fluorescence (AID 449749); format: functional
T1 sequence (P9WMR3 whole entry): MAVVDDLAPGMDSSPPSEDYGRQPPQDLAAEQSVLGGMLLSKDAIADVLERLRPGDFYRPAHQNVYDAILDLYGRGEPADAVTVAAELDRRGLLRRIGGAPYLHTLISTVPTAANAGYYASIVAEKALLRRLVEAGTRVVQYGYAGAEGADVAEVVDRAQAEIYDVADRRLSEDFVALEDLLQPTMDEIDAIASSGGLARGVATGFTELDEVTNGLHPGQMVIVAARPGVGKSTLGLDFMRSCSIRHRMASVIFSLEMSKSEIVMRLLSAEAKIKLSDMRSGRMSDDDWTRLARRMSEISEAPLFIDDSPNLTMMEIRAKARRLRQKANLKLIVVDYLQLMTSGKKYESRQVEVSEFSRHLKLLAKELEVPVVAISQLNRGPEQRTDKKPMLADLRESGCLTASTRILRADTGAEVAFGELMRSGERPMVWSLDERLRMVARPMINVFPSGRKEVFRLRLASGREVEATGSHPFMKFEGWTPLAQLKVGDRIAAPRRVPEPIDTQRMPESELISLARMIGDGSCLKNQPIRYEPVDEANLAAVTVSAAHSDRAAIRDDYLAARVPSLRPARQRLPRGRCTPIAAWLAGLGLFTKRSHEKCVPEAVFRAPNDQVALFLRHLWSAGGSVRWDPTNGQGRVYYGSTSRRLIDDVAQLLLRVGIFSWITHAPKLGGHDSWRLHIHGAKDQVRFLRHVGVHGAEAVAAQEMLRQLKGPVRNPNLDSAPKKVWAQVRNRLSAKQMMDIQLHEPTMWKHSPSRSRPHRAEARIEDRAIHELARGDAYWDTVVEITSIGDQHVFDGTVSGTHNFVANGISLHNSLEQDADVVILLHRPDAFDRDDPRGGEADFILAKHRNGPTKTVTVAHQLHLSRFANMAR

[16] = target: T2, Protein RecA (Mycobacterium tuberculosis, UniProt P9WHJ3); test: Fluorescence Cell-Free Homogeneous Dose Retest to Identify Inhibitors of RecA-Intein Splicing Activity. [Related pubchem assays (depositor defined):AID2097, AID2223, AID489010, AID492950]; format: functional
T2 sequence (P9WHJ3 whole entry): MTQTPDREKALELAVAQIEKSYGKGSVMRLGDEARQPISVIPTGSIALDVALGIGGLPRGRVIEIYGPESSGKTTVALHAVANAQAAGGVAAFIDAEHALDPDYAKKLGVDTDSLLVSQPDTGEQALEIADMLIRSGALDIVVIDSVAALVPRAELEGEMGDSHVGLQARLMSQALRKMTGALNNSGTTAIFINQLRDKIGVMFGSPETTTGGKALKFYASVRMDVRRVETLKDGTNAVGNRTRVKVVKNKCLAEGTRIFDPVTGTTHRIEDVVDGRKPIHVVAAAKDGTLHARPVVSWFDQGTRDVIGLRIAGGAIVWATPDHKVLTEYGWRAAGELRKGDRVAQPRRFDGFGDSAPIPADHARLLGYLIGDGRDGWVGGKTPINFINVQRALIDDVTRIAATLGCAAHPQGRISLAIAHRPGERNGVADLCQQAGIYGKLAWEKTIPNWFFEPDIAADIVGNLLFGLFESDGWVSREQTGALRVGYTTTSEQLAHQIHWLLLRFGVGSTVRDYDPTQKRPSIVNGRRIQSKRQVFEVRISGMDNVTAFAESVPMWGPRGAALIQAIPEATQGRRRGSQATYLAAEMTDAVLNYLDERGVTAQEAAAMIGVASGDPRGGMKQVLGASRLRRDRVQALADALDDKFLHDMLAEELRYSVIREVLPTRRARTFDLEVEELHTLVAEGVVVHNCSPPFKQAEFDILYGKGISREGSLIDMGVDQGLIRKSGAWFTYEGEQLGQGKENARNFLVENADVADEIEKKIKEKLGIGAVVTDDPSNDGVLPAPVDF

[17] = target: T3, Voltage-gated N-type calcium channel alpha-1B subunit/Amyloid beta A4 precursor protein-binding family A member 1 (Homo sapiens, UniProt Q00975+Q02410); format: protein assay
[18] = target: T3, Voltage-gated N-type calcium channel alpha-1B subunit/Amyloid beta A4 precursor protein-binding family A member 1; format: protein assay; remark: listed apart in the source
[19] = target: T3, Voltage-gated N-type calcium channel alpha-1B subunit/Amyloid beta A4 precursor protein-binding family A member 1; test: disruptors of Mint-PDZ/N-type channel peptide interaction – biochemical, HTRF, SAR follow-up (AID 2489); format: functional
[20] = viability of uninfected HEp-2 cells – cell-based, HTS, cytotoxicity control for RSV inhibitor project, dose response (AID 2410); format: functional; conditions: human respiratory syncytial virus
[21] = cells; remark: listed apart in the source
[22] = NIH-3T3 fibroblast cytotoxicity, dose response, cytotoxicity control, cell-based, fluorescence, Alamar Blue, secondary assay (AID 2327); format: functional;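 note: NIH-3T3 mouse fibroblasts cultured with fluconazole at 8 µg/mL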
[23] = fluconazole-exposed Candida albicans growth modulators – fluorescence, retest, confirmation (AID 2467); format: functional, cell-based
[24] = target: T4, Coagulation factor XII (Homo sapiens, UniProt P00748); format: functional;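 note: activated factor XIIa alpha cleaving a fluorogenic AMC peptide substrate; inhibitor potency from loss of enzyme activity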
T4 sequence (P00748 whole entry): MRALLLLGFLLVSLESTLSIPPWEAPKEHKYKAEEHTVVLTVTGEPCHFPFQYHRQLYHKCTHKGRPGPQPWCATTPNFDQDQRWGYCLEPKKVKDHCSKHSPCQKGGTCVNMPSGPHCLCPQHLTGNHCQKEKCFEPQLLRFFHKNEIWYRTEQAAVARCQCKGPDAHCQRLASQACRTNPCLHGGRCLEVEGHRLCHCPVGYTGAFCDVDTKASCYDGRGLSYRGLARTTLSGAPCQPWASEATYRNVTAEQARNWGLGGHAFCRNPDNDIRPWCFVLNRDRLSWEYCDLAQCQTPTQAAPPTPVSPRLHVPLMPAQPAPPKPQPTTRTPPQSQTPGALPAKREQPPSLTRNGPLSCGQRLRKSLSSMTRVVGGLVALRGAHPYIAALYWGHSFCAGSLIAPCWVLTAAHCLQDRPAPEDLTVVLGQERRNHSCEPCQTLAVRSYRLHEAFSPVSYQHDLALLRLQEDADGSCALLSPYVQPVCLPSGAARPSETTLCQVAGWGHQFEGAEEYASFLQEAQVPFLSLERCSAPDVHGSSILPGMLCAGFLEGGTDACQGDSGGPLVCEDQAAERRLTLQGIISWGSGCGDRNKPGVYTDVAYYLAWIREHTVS

[25] = target: Cytochrome P450 3A4 (Homo sapiens, UniProt P08684);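 note: CYP3A4 tested as one member of a cytochrome P450 panel screen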
[26] = target: Cytochrome P450 2C9 (Homo sapiens, UniProt P11712)
[27] = target: T5, DNA repair and recombination protein RAD54-like (Homo sapiens, UniProt Q92698); test: RAD54 Holliday junction migration blockers – biochemical, fluorescence, cherry-picked samples, dose series, confirmation (AID 651657); format: functional
T5 sequence (Q92698 whole entry): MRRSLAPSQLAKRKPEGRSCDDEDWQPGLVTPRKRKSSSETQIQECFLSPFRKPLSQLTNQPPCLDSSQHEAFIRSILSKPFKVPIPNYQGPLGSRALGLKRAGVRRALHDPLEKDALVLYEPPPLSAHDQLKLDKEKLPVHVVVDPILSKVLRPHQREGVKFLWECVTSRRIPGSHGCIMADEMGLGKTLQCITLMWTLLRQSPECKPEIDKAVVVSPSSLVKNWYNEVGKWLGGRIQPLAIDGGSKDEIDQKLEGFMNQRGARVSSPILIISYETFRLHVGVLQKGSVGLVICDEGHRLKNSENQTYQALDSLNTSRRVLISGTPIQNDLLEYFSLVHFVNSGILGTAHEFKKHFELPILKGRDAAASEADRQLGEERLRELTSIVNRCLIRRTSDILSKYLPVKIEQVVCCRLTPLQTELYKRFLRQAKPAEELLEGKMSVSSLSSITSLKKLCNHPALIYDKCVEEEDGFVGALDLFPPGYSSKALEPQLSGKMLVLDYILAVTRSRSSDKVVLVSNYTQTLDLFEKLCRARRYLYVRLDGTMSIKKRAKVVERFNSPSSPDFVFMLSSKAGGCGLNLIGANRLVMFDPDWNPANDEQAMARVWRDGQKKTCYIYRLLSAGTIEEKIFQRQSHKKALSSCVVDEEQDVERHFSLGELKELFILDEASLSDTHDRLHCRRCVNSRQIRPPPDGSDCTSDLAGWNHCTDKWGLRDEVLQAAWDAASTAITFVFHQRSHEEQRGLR

[28] = target: T6, DNA repair protein RAD52 homolog (Homo sapiens, UniProt P43351); format: functional, biochemical
T6 sequence (P43351 whole entry): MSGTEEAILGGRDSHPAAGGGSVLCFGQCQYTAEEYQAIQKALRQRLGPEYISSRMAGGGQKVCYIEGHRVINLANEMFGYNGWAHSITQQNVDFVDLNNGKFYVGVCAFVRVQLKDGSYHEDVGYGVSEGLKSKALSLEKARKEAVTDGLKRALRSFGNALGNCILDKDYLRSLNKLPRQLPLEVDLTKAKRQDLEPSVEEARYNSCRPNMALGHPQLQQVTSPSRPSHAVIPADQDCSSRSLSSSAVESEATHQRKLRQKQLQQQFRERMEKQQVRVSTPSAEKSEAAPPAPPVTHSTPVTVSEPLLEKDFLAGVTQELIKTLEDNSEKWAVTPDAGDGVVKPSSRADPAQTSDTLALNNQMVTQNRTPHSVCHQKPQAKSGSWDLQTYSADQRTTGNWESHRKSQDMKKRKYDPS

T3 sequence (Q00975 whole entry): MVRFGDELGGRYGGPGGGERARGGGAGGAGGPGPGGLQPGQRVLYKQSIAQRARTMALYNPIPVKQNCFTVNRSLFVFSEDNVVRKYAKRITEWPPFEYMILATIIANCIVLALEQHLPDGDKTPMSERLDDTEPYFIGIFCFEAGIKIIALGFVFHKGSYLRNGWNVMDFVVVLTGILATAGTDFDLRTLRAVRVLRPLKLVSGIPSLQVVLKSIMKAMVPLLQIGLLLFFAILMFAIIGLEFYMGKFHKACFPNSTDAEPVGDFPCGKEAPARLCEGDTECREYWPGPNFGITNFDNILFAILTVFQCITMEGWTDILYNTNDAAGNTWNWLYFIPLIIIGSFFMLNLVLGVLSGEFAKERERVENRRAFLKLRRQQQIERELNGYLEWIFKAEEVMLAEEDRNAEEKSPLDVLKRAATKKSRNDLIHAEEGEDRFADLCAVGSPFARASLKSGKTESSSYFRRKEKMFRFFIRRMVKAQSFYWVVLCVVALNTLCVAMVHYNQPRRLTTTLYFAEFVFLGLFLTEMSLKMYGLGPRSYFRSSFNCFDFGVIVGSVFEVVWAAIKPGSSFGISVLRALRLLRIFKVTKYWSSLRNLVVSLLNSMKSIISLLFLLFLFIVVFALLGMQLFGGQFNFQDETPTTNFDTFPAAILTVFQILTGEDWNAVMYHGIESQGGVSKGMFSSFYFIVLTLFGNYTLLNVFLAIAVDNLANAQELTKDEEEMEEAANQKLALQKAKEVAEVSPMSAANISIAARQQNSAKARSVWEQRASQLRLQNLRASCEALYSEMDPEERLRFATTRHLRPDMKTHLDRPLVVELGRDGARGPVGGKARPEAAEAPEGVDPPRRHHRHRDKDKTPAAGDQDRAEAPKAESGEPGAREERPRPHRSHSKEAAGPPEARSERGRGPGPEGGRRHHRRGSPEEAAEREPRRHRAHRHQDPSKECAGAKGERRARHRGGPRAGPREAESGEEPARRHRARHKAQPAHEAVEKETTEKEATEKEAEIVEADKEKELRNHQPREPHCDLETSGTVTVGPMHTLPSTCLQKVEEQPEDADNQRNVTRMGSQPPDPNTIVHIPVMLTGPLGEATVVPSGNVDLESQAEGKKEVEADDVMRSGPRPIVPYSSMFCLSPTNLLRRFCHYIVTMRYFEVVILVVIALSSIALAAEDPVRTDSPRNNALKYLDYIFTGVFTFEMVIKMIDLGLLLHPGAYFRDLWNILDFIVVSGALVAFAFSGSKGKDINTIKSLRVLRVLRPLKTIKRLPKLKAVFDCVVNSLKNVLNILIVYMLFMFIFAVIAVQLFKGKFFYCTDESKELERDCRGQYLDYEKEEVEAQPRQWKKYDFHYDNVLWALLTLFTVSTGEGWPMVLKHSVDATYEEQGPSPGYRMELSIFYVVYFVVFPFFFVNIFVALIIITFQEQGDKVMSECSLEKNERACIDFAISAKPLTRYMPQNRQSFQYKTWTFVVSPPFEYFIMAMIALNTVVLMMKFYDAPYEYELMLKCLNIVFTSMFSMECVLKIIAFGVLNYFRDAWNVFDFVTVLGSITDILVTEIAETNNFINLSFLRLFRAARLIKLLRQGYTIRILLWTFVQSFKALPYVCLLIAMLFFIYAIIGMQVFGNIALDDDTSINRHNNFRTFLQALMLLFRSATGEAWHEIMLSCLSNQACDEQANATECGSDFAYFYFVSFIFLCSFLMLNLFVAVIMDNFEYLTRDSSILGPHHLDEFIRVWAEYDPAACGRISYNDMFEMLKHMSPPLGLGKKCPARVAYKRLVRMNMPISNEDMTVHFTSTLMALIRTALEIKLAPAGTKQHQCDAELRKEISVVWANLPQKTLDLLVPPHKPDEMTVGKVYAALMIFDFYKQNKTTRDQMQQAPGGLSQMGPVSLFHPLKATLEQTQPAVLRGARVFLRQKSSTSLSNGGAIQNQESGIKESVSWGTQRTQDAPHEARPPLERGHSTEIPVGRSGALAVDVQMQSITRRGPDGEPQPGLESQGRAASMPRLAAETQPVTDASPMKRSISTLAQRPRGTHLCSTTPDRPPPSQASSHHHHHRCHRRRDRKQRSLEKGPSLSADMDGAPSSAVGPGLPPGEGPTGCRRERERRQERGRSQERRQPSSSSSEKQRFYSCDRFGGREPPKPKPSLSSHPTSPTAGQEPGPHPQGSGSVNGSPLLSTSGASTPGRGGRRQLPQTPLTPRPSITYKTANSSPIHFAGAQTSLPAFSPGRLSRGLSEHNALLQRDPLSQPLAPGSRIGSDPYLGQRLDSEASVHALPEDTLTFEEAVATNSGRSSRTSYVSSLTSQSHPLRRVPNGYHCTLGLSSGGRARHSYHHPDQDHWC
T3 sequence (Q02410 whole entry): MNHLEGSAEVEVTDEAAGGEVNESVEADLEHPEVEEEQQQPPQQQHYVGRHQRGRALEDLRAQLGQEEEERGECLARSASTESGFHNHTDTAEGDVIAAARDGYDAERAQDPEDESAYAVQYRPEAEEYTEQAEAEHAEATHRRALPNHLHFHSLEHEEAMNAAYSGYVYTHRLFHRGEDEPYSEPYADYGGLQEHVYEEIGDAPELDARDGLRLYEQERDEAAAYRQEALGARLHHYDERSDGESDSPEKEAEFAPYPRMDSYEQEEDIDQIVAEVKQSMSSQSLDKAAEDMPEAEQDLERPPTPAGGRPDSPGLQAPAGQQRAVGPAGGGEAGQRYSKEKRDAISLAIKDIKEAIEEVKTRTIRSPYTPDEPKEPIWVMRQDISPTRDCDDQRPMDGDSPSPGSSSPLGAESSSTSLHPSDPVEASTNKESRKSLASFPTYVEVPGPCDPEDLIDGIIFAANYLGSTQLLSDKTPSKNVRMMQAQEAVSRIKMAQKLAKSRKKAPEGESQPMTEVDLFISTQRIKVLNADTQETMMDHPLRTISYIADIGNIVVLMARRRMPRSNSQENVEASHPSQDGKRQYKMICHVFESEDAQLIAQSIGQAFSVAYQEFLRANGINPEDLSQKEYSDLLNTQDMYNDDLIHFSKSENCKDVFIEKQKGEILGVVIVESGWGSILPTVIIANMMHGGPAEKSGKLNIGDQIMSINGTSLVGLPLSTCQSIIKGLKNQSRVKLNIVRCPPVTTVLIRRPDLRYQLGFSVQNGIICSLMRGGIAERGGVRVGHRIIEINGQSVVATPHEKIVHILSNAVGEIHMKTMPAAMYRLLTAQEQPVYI
Chain of Cytochrome P450 2C9 (P11712 whole entry): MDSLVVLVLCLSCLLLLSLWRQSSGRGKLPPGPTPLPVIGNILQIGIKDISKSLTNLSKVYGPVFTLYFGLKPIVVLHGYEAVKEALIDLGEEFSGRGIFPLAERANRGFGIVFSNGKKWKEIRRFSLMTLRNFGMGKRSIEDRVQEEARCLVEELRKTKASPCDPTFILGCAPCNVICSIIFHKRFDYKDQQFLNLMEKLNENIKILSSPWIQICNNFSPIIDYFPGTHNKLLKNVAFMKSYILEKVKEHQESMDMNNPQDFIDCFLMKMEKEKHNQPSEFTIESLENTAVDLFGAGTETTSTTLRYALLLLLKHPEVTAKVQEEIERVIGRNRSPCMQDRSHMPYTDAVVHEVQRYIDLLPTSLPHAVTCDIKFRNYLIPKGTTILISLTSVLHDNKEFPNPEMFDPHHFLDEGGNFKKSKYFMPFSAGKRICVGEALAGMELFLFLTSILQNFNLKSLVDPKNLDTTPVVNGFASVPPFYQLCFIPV
Chain of Cytochrome P450 3A4 (P08684 whole entry): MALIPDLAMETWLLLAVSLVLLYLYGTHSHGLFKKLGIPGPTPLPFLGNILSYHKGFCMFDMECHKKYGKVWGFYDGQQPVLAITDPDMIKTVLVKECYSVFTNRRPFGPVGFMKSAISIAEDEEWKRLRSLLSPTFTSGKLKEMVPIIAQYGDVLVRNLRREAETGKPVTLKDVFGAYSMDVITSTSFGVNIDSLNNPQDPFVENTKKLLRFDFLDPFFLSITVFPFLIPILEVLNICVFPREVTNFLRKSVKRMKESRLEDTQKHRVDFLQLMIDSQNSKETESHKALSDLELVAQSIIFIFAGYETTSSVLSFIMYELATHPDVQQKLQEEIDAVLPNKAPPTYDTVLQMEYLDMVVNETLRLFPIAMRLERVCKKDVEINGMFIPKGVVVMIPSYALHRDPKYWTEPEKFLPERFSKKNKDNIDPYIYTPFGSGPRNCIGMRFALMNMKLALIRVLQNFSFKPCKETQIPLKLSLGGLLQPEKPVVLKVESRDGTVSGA

## Cc1nc(N2CCC(C)CC2)c2c(C)c(C(=O)Nc3cc(F)ccc3C)sc2n1
[1]
  EC50: > 20 µM (inactive)
[2]
  IC50: > 20 µM (inactive)
[3]
  IC50: > 20 µM (inactive)
[4]
  EC50: > 20 µM (inactive)
[5]
  IC50: > 20 µM (inactive)
[6]
  IC50: > 20 µM (inactive)

## O=C(NN(c1ccccc1)c1ccccc1)c1ccc([N+](=O)[O-])o1
[7]
  EC50: 44.6 µM (active)
[8]
  EC50: > 120 µM (not active)
[9]
  EC50: > 120 µM (not active)
[10]
  EC50: < 0.1 µM (active)
[11]
  EC50: > 60 µM (not active)
[12]
  CC50: 17.4 µM (active)
[13]
  EC50: 0.14 µM (active)

## Cc1cc(Cl)ccc1OC(C)C(=O)NCCCCc1ccccc1 (stereo not given)
[14]
  CC50: > 40 µM (active)

## O=C1COc2ccc(C(=O)CCl)cc2N1
[14]
  CC50: 31.8 µM (active)
[15]
  AC50: 40.4 µM (active)
[16]
  EC50: 26.3 µM (active)

## NC(=O)[C@@H]1CC2(CC(c3cccc(NC(=O)COc4ccc(Cl)cc4)c3)=NO2)CN1C(=O)COc1ccc(Cl)cc1 (stereo not given in full)
[14]
  CC50: > 40 µM (active)

## O=C(CSc1ccc(Cl)cc1)Nc1cccc(-c2nc3ccccc3[nH]2)c1
[17]
  IC50: 2.75 µM (active)
[18]
  IC50: 36.7 µM (active)
[19]
  IC50: 26.9 µM (active)

## CC(CCc1ccc(O)cc1)NC(c1ccccc1)c1ccc(Cl)cc1 (stereo not given)
[20]
  CC50: 10.3 µM (active)
[21]
  IC50: 11.8 µM (active)

## Oc1nc(COc2ccc(Br)cc2Cl)nc2ccccc12
[20]
  CC50: 23.6 µM (active)
[21]
  IC50: 30.7 µM (active)

## COc1cccc(NC(=O)c2cc(-c3cccnc3)nc3c(Cl)cccc23)c1
[14]
  CC50: 33.5 µM (active)

## Cc1cc(C(C#N)c2cccc(Cl)c2)n2ncnc2n1 (stereo not given)
[22]
  EC50: > 160 µM (inactive)
[23]
  EC50: 0.598 µM (active)
[24]
  IC50: > 50 µM (inactive)
[25]
  AC50: 14.1 µM (inconclusive)
[26]
  AC50: inconclusive

## CCc1c(C)nc(N)nc1N1N=C1SCC#N
[24]
  IC50: > 50 µM (inactive)

## CN(C)CCCN(C(=O)c1ccco1)c1nc(-c2ccc(Cl)cc2)cs1
[10]
  EC50: < 0.1 µM (active)
[11]
  EC50: > 60 µM (not active)
[12]
  CC50: > 25 µM (active)
[27]
  AC50: 64.1 µM (active)
[28]
  AC50: 17.3 µM (active)
[13]
  EC50: 0.254 µM (active)

## C/C(=N\NC(=O)c1ccc(NS(=O)(=O)c2cccs2)cc1)c1ccc(C(C)(C)C)cc1
[20]
  CC50: 20.6 µM (active)
[21]
  IC50: 8.48 µM (active)
